How the values were obtained:
[1] = biological target: T1, MGLL (Mus musculus, UniProt O35678); assay: In vitro competitive activity-based protein profiling, mouse brain proteome (MGLL); assay type: biochemical; conditions: concentration not given (μM)
T1 construct: Brain; from tissue; host or cells: mouse brain proteome
T1 sequence (O35678 1-303): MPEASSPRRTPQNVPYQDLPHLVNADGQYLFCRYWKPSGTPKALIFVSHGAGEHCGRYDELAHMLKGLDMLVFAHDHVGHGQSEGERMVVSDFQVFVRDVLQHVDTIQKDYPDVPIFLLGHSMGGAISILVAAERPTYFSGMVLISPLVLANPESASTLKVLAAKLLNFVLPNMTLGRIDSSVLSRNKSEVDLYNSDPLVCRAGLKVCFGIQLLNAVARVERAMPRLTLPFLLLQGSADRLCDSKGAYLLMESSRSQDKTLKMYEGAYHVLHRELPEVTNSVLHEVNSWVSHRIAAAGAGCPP

[2] = biological target: T2, ABHD6 (Mus musculus, UniProt Q8R2Y0); assay: In vitro competitive activity-based protein profiling, mouse brain proteome (ABHD6); assay type: biochemical; conditions: mouse brain proteome; concentration not given (μM)
T2 construct: Brain; from tissue; host or cells: mouse brain proteome
T2 sequence (Q8R2Y0 1-336): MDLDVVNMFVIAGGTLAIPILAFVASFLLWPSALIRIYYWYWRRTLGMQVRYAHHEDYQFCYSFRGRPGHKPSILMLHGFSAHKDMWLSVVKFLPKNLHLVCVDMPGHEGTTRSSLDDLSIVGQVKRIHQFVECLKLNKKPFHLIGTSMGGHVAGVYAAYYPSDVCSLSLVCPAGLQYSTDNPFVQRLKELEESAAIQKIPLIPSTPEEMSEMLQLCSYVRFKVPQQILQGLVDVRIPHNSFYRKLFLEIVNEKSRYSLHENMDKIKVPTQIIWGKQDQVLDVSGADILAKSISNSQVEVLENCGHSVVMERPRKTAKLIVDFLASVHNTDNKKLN
Procedure: [The source words this procedure for another target and reports this target under the same test.] In Vitro Competitive Activity-Based Protein Profiling.
Proteomes (human prefrontal cortex or cell membrane fractions) (50 μL, 1.0 mg/mL total protein concentration) were preincubated with varying concentrations of inhibitors at 37° C. After 30 min, FP-Rh or HT-01 (1.0 μL, 50 μM in DMSO) was added and the mixture was incubated for another 30 min at room temperature. Reactions were quenched with SDS loading buffer (15 μL-4×) and run on SDS-PAGE.

CS(=O)(=O)N1CCc2cccc(CN3CCC4(CC3)CCN(C(=O)OC(C(F)(F)F)C(F)(F)F)C4)c2C1 [Example 217, 1,1,1,3,3,3-Hexafluoropropan-2-yl 8-((2-(methylsulfonyl)-1,2,3,4-tetrahydroisoquinolin-8-yl)methyl)-2,8-diazaspiro[4.5]decane-2-carboxylate] was tested, and the “% Inh MGLL Brain (Mouse, μM)” value [1] was “### (### is ≥75%)” and the “% Inh ABHD6 Brain (Mouse, μM)” value [2] was “### (### is ≥75%)”.

O=C(OC(C(F)(F)F)C(F)(F)F)N1CCC2(CC1)CN(Cc1c(N3CCOCC3)cccc1C(F)(F)F)C2 [Example 43, 1,1,1,3,3,3-Hexafluoropropan-2-yl 2-(2-morpholino-6-(trifluoromethyl)benzyl)-2,7-diazaspiro[3.5]nonane-7-carboxylate] was tested, and the “% Inh MGLL Brain (Mouse, μM)” value [1] was “### (### is ≥75%)” and the “% Inh ABHD6 Brain (Mouse, μM)” value [2] was “## (## is between 25 and 75%)”.

With CC(=O)N1CC2(CCN(c3ccccc3CN3CCCCC34CCN(C(=O)OC(C(F)(F)F)C(F)(F)F)CC4)C2)C1 [Example 229, 1,1,1,3,3,3-Hexafluoropropan-2-yl 1-(2-(2-acetyl-2,6-diazaspiro[3,4]octan-6-yl)benzyl)-1,9-diazaspiro[5.5]undecane-9-carboxylate] the “% Inh MGLL Brain (Mouse, μM)” value [1] was “## (## is between 25 and 75%)” and the “% Inh ABHD6 Brain (Mouse, μM)” value [2] was “# (# is ≤25%)”.

With O=C(OC(C(F)(F)F)C(F)(F)F)N1CCC2(CC1)CN(Cc1ccccc1F)C2 [Example 98, 1,1,1,3,3,3-Hexafluoropropan-2-yl 2-(2-fluorobenzyl)-2,7-diazaspiro[3.5]nonane-7-carboxylate] the “% Inh MGLL Brain (Mouse, μM)” value [1] was “### (### is ≥75%)” and the “% Inh ABHD6 Brain (Mouse, μM)” value [2] was “### (### is ≥75%)”.

O=C(OC(C(F)(F)F)C(F)(F)F)N1CCC2(CC1)CN(Cc1ccc(CN3CCOCC3)cc1)C2 [Example 73, 1,1,1,3,3,3-Hexafluoropropan-2-yl 2-(4-(morpholinomethyl)benzyl)-2,7-diazaspiro[3.5]nonane-7-carboxylate] was tested, and the “% Inh MGLL Brain (Mouse, μM)” value [1] was “### (### is ≥75%)” and the “% Inh ABHD6 Brain (Mouse, μM)” value [2] was “### (### is ≥75%)”.

For O=C(OC(C(F)(F)F)C(F)(F)F)N1CCC2(CC1)CN(Cc1c(Cl)cccc1N1CCCC1)C2 [Example 42, 1,1,1,3,3,3-Hexafluoropropan-2-yl 2-(2-chloro-6-(pyrrolidin-1-yl)benzyl)-2,7-diazaspiro[3.5]nonane-7-carboxylate], the “% Inh MGLL Brain (Mouse, μM)” value [1] was “### (### is ≥75%)” and the “% Inh ABHD6 Brain (Mouse, μM)” value [2] was “### (### is ≥75%)”.

In the case of CS(=O)(=O)N1CCC2(CCN(c3cc(C(F)(F)F)ccc3CN3CCC4(CCN(C(=O)OC(C(F)(F)F)C(F)(F)F)C4)C3)CC2)C1 (stereo not shown) [Example 242, 1,1,1,3,3,3-Hexafluoropropan-2-yl 7-(2-(2-(methylsulfonyl)-2,8-diazaspiro[4.5]decan-8-yl)-4-(trifluoromethyl)benzyl)-2,7-diazaspiro[4.4]nonane-2-carboxylate], the “% Inh MGLL Brain (Mouse, μM)” value [1] was “### (### is ≥75%)” and the “% Inh ABHD6 Brain (Mouse, μM)” value [2] was “## (## is between 25 and 75%)”.

For O=C(OC(C(F)(F)F)C(F)(F)F)N1CCC2(CC1)CN(Cc1c(N3CCC(F)CC3)cccc1C(F)(F)F)C2 [Example 51, 1,1,1,3,3,3-Hexafluoropropan-2-yl 2-(2-(4-fluoropiperidin-1-yl)-6-(trifluoromethyl)benzyl)-2,7-diazaspiro[3,5]nonane-7-carboxylate], the “% Inh MGLL Brain (Mouse, μM)” value [1] was “### (### is ≥75%)” and the “% Inh ABHD6 Brain (Mouse, μM)” value [2] was “### (### is ≥75%)”.

In the case of O=C(OC(C(F)(F)F)C(F)(F)F)N1CCC2(CCN(Cc3cccc(Cl)c3N3CCCC3)CC2)C1 [Example 171, 1,1,1,3,3,3-Hexafluoropropan-2-yl 8-(3-chloro-2-(pyrrolidin-1-yl)benzyl)-2,8-diazaspiro[4.5]decane-2-carboxylate], the “% Inh MGLL Brain (Mouse, μM)” value [1] was “### (### is ≥75%)” and the “% Inh ABHD6 Brain (Mouse, μM)” value [2] was “# (# is ≤25%)”.

With CS(=O)(=O)N1CCN(c2cccc(Cl)c2CN2CC3(CCN(C(=O)OC(C(F)(F)F)C(F)(F)F)CC3)C2)CC1 [Example 44, 1,1,1,3,3,3-Hexafluoropropan-2-yl 2-(2-chloro-6-(4-(methylsulfonyl)piperazin-1-yl)benzyl)-2,7-diazaspiro[3.5]nonane-7-carboxylate] the “% Inh MGLL Brain (Mouse, μM)” value [1] was “### (### is ≥75%)” and the “% Inh ABHD6 Brain (Mouse, μM)” value [2] was “### (### is ≥75%)”.

For CS(=O)(=O)N1CC2(CCN(c3cc(C(F)(F)F)ccc3CN3CCN(C(=O)OC(C(F)(F)F)C(F)(F)F)CC3)C2)C1 [Example 186, 1,1,1,3,3,3-Hexafluoropropan-2-yl 4-(2-(2-(methylsulfonyl)-2,6-diazaspiro[3,4]octan-6-yl)-4-(trifluoromethyl)benzyl) piperazine-1-carboxylate], the “% Inh MGLL Brain (Mouse, μM)” value [1] was “### (### is ≥75%)” and the “% Inh ABHD6 Brain (Mouse, μM)” value [2] was “# (# is ≤25%)”.

CN(Cc1ccc(C(F)(F)F)cc1N1CCCC1)C1(C)CCN(C(=O)OC(C(F)(F)F)C(F)(F)F)CC1 [Example 72, 1,1,1,3,3,3-Hexafluoropropan-2-yl 4-methyl-4-(methyl(2-(pyrrolidin-1-yl)-4-(trifluoromethyl)benzyl)amino) piperidine-1-carboxylate] was tested, and the “% Inh MGLL Brain (Mouse, μM)” value [1] was “### (### is ≥75%)” and the “% Inh ABHD6 Brain (Mouse, μM)” value [2] was “# (# is ≤25%)”.

For CCN1CC2(CCN(c3cc(Cl)ccc3CN3CCN(C(=O)OC(C(F)(F)F)C(F)(F)F)CC3)C2)C1 [Example 173, 1,1,1,3,3,3-Hexafluoropropan-2-yl 4-(4-chloro-2-(2-ethyl-2,6-diazaspiro[3.4]octan-6-yl)benzyl)piperazine-1-carboxylate], the “% Inh MGLL Brain (Mouse, μM)” value [1] was “### (### is ≥75%)” and the “% Inh ABHD6 Brain (Mouse, μM)” value [2] was “# (# is ≤25%)”.

In the case of O=C(OC(C(F)(F)F)C(F)(F)F)N1CCC2(CCN(Cc3ccc(C(F)(F)F)cc3N3CCCCC3)CC2)C1 [Example 187, 1,1,1,3,3,3-Hexafluoropropan-2-yl 8-(2-(piperidin-1-yl)-4-(trifluoromethyl)benzyl)-2,8-diazaspiro[4.5]decane-2-carboxylate], the “% Inh MGLL Brain (Mouse, μM)” value [1] was “### (### is ≥75%)” and the “% Inh ABHD6 Brain (Mouse, μM)” value [2] was “# (# is ≤25%)”.

For O=C(OC(C(F)(F)F)C(F)(F)F)N1CCC2(CC1)CN(Cc1ccc(N3CCCC3)cc1)C2 [Example 80, 1,1,1,3,3,3-Hexafluoropropan-2-yl 2-(4-(pyrrolidin-1-yl)benzyl)-2,7-diazaspiro[3.5]nonane-7-carboxylate], the “% Inh MGLL Brain (Mouse, μM)” value [1] was “### (### is ≥75%)” and the “% Inh ABHD6 Brain (Mouse, μM)” value [2] was “# (# is ≤25%)”.

With CC(=O)N1CC2(CCN(c3cc(Cl)ccc3CN3CCN(C(=O)OC(C(F)(F)F)C(F)(F)F)CC3)CC2)C1 [Example 213, 1,1,1,3,3,3-Hexafluoropropan-2-yl 4-(2-(2-acetyl-2,7-diazaspiro[3.5]nonan-7-yl)-4-chlorobenzyl)piperazine-1-carboxylate] the “% Inh MGLL Brain (Mouse, μM)” value [1] was “### (### is ≥75%)” and the “% Inh ABHD6 Brain (Mouse, μM)” value [2] was “## (## is between 25 and 75%)”.

For Cc1ccc(CN2CC3(CCN(C(=O)OC(C(F)(F)F)C(F)(F)F)CC3)C2)cc1 [Example 84, 1,1,1,3,3,3-Hexafluoropropan-2-yl 2-(4-methylbenzyl)-2,7-diazaspiro[3.5]nonane-7-carboxylate], the “% Inh MGLL Brain (Mouse, μM)” value [1] was “### (### is ≥75%)” and the “% Inh ABHD6 Brain (Mouse, μM)” value [2] was “### (### is ≥75%)”.

In the case of CCN1CCC2(CCN(c3cc(Cl)ccc3CN3CCN(C(=O)OC(C(F)(F)F)C(F)(F)F)CC3)CC2)C1 [Example 170, 1,1,1,3,3,3-Hexafluoropropan-2-yl 4-(4-chloro-2-(2-ethyl-2,8-diazaspiro[4.5]decan-8-yl)benzyl)piperazine-1-carboxylate], the “% Inh MGLL Brain (Mouse, μM)” value [1] was “### (### is ≥75%)” and the “% Inh ABHD6 Brain (Mouse, μM)” value [2] was “# (# is ≤25%)”.

CN1CCCC12CCN(c1cc(C(F)(F)F)ccc1CN1CCN(C(=O)OC(C(F)(F)F)C(F)(F)F)CC1)CC2 [Example 215, 1,1,1,3,3,3-Hexafluoropropan-2-yl 4-(2-(1-methyl-1,8-diazaspiro[4.5]decan-8-yl)-4-(trifluoromethyl)benzyl) piperazine-1-carboxylate] was tested, and the “% Inh MGLL Brain (Mouse, μM)” value [1] was “### (### is ≥75%)” and the “% Inh ABHD6 Brain (Mouse, μM)” value [2] was “# (# is ≤25%)”.

CN(Cc1cc(N2CCCC2)cc(C(F)(F)F)c1)C1(C)CCN(C(=O)OC(C(F)(F)F)C(F)(F)F)CC1 [Example 76, 1,1,1,3,3,3-Hexafluoropropan-2-yl 4-methyl-4-(methyl(3-(pyrrolidin-1-yl)-5-(trifluoromethyl)bcnzyl)amino) piperidine-1-carboxylate] was tested, and the “% Inh MGLL Brain (Mouse, μM)” value [1] was “### (### is ≥75%)” and the “% Inh ABHD6 Brain (Mouse, μM)” value [2] was “# (# is ≤25%)”.

Reference: US11161856B2 (H. Lundbeck A/S, priority 2017, dated 2021)
